Laboratory results from patent US5962501A, “Enantiomer of carbazole derivative as 5-HT1-like agonists” (SmithKline Beecham, p.l.c., priority 1992, dated 1999).

Biological target: T1, 5-HT1 -like receptor (Oryctolagus cuniculus, UniProt P49144)
T1 construct: Arteries were then cut into ring segments (ca 4-5 mm wide) and set up for recording of isometric tension; from tissue; host or cells: rabbit basilar artery rings, endothelium removed
Assay: 5-HT1-like receptor screen, rabbit isolated basilar artery (cumulative concentration-effect curves, isometric tension)
Format: cell-based
Settings: in presence of ascorbate, indomethacin, cocaine, ketanserin and prazosin
Experimental: 5-HT1 -like Receptor Screen
In brief, rabbits were killed by overdose with anaesthetic (sodium pentobarbitone). The whole brain was quickly removed and immersed in ice cold modified Kreb's solution and the basilar artery removed with the aid of a dissecting microscope. […] The endothelium was removed by a gentle rubbing of the lumen with a fine metal wire. […] The arteries were then placed under a resting force of 3-4 mN maintained at 37° C. and the solution bubbled with 95% O2 /5% CO2.
After tests for initial reactivity with 90 mM KCl depolarising solution and for lack of acetylcholine-induced relaxation of 5-HT ([…]) precontraction, cumulative concentration-effect curves ([…]) to 5-HT were constructed in the presence of ascorbate […], cocaine […], indomethacin […], ketanserin […] and prazosin […].
Following a 45-60 min wash period, cumulative concentration-effect curves to the test compounds or 5-HT (as a time match control) were constructed in the presence of ascorbate, indomethacin, cocaine, ketanserin and prazosin.

T1 sequence (P49144 whole entry): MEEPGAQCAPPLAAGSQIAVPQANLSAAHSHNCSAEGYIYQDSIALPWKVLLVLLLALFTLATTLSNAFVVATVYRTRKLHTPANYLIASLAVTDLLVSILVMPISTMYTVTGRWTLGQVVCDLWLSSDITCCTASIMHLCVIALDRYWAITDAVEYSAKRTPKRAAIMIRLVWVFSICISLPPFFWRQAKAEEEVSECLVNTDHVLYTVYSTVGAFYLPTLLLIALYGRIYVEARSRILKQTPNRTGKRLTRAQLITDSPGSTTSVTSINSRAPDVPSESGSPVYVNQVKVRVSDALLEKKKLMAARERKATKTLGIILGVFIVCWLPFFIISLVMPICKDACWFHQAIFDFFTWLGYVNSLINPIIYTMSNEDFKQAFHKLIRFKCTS

EC50: > 2000 nM
Structure (SMILES): CN[C@H]1CCc2[nH]c3ccc(C(N)=O)cc3c2C1 [Compound B, S-(-)-6-carboxamido-3-N-methylamino-1,2,3,4-tetrahydrocarbazole]
